Assay [1] addresses T1, Breakpoint cluster region protein (Homo sapiens, UniProt P11274).
T1 sequence (P11274 whole entry): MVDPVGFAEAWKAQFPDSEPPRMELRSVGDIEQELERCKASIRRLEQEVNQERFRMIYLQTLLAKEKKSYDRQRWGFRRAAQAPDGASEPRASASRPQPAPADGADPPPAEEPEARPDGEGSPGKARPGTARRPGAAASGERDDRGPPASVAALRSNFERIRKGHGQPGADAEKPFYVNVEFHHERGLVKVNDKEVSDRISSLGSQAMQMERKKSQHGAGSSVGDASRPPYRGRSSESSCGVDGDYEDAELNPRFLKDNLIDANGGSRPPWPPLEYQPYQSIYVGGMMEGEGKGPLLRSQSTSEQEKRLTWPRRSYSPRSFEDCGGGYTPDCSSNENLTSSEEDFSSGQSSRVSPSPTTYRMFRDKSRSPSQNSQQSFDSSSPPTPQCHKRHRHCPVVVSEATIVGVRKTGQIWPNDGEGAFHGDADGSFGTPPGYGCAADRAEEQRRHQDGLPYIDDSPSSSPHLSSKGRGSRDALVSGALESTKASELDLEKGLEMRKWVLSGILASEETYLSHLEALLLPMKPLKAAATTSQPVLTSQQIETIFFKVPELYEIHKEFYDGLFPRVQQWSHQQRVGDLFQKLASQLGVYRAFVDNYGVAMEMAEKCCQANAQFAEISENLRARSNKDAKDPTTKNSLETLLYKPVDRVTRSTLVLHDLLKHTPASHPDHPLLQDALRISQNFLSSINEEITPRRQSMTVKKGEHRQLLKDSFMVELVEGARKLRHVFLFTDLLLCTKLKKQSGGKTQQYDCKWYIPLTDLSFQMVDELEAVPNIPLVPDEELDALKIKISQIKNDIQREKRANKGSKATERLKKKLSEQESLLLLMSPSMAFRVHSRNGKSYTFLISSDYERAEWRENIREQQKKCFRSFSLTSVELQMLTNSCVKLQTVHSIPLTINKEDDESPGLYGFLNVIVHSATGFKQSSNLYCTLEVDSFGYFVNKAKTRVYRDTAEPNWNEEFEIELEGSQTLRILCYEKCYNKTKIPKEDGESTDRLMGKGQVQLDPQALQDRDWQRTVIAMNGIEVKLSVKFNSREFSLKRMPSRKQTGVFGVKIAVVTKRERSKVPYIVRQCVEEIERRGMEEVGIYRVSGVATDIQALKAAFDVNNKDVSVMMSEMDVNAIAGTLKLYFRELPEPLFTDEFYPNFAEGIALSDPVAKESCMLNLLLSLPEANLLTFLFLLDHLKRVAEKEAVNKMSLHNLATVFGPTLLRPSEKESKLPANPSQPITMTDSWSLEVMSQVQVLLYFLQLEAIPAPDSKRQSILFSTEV

Assay [2] has as its target Tyrosine-protein kinase ABL1 (Homo sapiens, UniProt P00519).
Assay [3] addresses Myosin light chain kinase, smooth muscle (Homo sapiens, UniProt Q15746).
The target in assay [4] is Tyrosine-protein kinase BTK (Homo sapiens, UniProt Q06187).
The target of assay [5] is T2, Phosphorylase b kinase gamma catalytic chain, liver/testis isoform (Homo sapiens, UniProt P15735).
T2 sequence (P15735 whole entry): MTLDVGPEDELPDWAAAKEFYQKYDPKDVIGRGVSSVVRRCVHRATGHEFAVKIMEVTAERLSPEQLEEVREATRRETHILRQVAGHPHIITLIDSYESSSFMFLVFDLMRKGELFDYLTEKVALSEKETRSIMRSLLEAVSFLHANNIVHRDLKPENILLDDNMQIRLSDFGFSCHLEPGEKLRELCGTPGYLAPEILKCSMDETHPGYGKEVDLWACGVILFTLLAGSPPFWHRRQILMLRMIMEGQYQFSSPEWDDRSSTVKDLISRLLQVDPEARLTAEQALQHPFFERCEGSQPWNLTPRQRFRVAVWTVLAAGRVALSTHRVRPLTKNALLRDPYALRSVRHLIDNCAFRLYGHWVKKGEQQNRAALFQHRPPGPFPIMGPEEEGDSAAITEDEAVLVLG

Assay [6] concerns the target T3, Succinate--CoA ligase [ADP-forming] subunit beta, mitochondrial (Homo sapiens, UniProt Q9P2R7).
T3 sequence (Q9P2R7 whole entry): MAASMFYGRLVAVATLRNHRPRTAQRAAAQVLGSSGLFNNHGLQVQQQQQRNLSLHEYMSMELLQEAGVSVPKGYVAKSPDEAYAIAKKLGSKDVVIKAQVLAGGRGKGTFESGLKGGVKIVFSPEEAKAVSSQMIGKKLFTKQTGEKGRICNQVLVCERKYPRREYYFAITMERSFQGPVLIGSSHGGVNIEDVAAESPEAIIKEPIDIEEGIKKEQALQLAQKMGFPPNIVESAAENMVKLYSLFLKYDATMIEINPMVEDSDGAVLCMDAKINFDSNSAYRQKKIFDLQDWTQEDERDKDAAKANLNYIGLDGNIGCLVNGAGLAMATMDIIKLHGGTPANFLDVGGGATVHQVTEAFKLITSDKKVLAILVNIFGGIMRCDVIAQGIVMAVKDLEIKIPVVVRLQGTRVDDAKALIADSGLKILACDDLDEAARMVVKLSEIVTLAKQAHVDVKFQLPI

For assay [7], the target named is U5 small nuclear ribonucleoprotein 200 kDa helicase (Homo sapiens, UniProt O75643).

Activity calls are given as the source filed them. Rule as the data show it, for most assays here: actives have a measured Kd and inactives only a lower limit.

From ChEMBL document CHEMBL3991601, “The target landscape of clinical kinase drugs” (Science, 2017) come the findings set out here.
Also: in the data inactive means no Kd found up to 30 µM.

U5 small nuclear ribonucleoprotein 200 kDa helicase, sequence (O75643 whole entry): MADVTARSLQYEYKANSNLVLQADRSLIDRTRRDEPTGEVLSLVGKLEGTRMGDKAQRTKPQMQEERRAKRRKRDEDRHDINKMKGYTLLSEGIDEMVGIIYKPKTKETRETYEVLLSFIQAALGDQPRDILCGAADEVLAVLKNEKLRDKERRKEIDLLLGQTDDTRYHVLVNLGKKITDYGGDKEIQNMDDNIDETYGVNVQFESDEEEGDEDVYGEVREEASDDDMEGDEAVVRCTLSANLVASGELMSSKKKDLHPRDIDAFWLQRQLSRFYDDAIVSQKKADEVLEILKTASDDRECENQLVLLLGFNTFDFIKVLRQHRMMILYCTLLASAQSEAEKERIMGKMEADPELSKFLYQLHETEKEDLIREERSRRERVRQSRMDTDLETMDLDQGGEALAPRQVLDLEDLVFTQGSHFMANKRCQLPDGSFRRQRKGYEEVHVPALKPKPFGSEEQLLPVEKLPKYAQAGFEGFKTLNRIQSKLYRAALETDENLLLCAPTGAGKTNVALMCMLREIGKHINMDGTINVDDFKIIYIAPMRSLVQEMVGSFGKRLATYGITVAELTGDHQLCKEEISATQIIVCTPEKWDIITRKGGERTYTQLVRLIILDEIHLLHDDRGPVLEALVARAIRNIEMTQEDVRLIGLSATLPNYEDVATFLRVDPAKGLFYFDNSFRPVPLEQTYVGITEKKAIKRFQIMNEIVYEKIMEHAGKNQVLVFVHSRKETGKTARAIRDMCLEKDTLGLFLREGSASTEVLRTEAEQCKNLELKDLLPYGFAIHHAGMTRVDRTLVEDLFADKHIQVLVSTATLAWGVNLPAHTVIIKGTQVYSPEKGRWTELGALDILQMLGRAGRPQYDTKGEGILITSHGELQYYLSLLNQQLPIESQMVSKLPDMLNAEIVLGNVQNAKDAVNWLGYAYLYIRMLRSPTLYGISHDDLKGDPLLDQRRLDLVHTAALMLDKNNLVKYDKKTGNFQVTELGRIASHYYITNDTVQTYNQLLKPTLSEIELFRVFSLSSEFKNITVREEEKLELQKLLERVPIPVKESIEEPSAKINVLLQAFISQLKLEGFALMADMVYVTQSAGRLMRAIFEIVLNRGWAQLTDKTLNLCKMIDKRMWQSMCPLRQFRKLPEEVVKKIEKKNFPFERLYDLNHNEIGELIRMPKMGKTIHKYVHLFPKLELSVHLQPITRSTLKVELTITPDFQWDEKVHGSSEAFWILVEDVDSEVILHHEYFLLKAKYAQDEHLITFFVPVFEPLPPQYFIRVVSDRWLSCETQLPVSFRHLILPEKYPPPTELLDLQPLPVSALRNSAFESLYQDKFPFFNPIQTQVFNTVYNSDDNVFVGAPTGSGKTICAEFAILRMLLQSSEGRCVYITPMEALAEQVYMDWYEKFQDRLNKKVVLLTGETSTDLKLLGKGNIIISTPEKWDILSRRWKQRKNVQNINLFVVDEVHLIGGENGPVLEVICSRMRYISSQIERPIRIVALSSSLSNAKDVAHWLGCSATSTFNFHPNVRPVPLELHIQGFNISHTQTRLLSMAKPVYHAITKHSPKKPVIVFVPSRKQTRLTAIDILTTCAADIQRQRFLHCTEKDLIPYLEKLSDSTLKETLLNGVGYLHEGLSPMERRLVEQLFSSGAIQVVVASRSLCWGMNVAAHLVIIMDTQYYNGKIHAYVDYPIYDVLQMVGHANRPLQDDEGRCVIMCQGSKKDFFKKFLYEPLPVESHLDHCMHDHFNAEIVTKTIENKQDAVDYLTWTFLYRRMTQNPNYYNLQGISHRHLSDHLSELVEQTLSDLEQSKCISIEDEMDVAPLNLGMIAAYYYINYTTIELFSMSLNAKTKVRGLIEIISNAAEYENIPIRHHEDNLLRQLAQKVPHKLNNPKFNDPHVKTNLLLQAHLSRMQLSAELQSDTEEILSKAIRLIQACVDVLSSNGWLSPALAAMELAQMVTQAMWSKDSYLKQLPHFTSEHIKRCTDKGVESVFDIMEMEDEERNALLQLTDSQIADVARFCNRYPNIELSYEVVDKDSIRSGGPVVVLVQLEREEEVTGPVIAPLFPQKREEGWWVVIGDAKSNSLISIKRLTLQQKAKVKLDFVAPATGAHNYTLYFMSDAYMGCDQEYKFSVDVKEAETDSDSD
Tyrosine-protein kinase BTK, sequence (Q06187 whole entry, canonical isoform): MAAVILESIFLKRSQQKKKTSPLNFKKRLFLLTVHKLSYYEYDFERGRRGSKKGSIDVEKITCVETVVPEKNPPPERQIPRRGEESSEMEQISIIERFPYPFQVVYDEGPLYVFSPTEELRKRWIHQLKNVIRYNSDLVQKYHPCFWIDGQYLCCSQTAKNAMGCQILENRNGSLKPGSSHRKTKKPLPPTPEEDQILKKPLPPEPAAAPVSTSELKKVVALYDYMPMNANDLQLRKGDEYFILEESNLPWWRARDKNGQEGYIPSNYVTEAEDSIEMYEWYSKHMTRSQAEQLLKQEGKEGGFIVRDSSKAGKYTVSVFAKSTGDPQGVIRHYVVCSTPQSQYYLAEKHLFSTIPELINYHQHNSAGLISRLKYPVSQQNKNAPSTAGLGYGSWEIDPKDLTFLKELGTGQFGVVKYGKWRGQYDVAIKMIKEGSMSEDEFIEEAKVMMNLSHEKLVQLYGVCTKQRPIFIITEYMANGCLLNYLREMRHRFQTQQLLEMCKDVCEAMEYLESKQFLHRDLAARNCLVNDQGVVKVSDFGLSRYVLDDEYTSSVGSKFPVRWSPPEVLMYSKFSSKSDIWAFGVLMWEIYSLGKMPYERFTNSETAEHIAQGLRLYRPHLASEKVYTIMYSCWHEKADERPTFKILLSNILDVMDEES
Myosin light chain kinase, smooth muscle, sequence (Q15746 whole entry): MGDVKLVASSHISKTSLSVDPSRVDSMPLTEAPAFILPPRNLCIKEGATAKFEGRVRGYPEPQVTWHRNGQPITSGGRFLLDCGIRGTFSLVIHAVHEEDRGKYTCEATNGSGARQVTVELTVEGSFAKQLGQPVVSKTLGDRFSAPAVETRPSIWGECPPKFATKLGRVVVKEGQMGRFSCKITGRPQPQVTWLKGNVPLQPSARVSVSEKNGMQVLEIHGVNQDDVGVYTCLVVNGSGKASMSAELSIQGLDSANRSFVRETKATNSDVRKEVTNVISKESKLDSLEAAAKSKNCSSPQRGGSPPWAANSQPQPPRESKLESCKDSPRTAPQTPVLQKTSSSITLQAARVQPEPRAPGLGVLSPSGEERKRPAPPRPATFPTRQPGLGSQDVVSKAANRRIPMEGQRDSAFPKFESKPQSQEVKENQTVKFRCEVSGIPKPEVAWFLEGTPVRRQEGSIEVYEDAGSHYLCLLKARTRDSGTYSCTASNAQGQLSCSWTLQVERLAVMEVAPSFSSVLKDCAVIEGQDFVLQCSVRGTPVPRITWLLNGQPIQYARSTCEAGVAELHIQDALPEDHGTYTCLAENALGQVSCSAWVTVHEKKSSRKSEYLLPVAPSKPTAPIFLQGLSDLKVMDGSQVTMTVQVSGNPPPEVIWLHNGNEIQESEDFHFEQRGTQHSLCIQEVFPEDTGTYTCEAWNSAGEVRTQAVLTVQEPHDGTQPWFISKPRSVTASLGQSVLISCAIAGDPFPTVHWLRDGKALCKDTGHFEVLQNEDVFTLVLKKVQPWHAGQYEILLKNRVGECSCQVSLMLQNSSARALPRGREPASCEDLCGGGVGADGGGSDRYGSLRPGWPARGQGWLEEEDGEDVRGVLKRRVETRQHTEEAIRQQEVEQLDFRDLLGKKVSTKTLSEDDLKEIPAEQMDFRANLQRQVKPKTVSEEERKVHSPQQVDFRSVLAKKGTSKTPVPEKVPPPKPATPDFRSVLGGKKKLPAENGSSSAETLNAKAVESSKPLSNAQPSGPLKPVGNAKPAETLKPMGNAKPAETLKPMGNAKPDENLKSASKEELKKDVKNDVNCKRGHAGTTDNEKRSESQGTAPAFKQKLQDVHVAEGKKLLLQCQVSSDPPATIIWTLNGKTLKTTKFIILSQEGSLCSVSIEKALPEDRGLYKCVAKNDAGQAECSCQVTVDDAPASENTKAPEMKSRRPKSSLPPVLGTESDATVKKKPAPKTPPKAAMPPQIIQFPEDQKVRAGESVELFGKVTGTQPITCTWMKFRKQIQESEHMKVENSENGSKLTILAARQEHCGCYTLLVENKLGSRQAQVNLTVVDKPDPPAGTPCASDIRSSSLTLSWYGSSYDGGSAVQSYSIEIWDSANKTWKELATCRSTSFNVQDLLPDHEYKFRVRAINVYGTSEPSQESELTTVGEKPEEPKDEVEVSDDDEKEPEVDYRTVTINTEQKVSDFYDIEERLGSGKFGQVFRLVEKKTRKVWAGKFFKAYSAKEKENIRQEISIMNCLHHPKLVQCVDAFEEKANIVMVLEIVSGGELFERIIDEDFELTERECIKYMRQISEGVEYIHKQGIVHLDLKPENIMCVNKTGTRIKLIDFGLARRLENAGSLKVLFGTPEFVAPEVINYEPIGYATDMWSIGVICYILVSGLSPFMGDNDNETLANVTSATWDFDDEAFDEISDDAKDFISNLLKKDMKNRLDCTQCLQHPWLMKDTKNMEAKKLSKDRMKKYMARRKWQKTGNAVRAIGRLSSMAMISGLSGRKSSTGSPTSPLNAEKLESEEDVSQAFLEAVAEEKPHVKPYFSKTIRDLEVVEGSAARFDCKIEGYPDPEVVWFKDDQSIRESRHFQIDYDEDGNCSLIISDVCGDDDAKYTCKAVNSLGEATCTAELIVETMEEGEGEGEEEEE

On to `N[C@@H]1CCCN(c2c(/C=C3\SC(=O)NC3=O)cccc2-c2ccccc2)C1`, for which the Kd in assay [1], in assay [2], in assay [3], in assay [4], in assay [5] and in assay [6] was > 30 µM (inactive) each time. In assay [7], the Kd was > 30 µM (inactive).
As for `O=C(O)[C@]1(Cc2cccc(Nc3nccs3)n2)CC[C@@H](Oc2cccc(Cl)c2F)CC1` [MK-5108], the dissociation constant Kd in assay [1] was 0.011 µM (active); in assay [2], 0.062 µM (active); in assay [3], > 30 µM (inactive); in assay [4], > 30 µM (inactive); in assay [5], > 30 µM (inactive); in assay [6] it was > 30 µM (inactive). Further, in assay [7], the Kd is > 30 µM (inactive).
`CC[C@@H]1C(=O)N(C)c2cnc(Nc3ccc(C(=O)N[C@H]4CC[C@H](N5CCN(CC6CC6)CC5)CC4)cc3OC)nc2N1C(C)C` [VOLASERTIB]: the Kd in assay [1], in assay [2], in assay [3], in assay [4], in assay [5] and in assay [6] was > 30 µM (inactive) each time. Further, in assay [7], the Kd was > 30 µM (inactive).
Consider `Cc1cc(-c2cc(O)ccc2Cl)cc2nnc(Nc3ccc(OCCN4CCCC4)cc3)nc12`, for which the Kd in assay [1] was 0.001 µM (active); in assay [2], 0.002 µM (active); in assay [3], > 30 µM (inactive); in assay [4] it was > 30 µM (inactive); in assay [5], > 30 µM (inactive); in assay [6], > 30 µM (inactive). Also, the Kd in assay [7] is > 30 µM (inactive).
On to `CCn1c(=O)c(-c2cc[nH]n2)cc2c(C)nc(N)nc21` [VOXTALISIB], for which the Kd in assay [1], in assay [2], in assay [3], in assay [4], in assay [5] and in assay [6] was > 30 µM (inactive) throughout. For the same compound, the Kd in assay [7] is > 30 µM (inactive).
For `Cc1cc2c(F)c(Oc3ncnn4cc(OC[C@@H](C)OC(=O)[C@H](C)N)c(C)c34)ccc2[nH]1` [BRIVANIB ALANINATE], the Kd in assay [1], in assay [2], in assay [3], in assay [4], in assay [5] and in assay [6] was > 30 µM (inactive) each time. For the same compound, the Kd in assay [7] is > 30 µM (inactive).
As to `CN1CCC(CNc2ccc3ncc(-c4cccc(OC(F)(F)F)c4)n3n2)CC1` [SGI-1776], the Kd in assay [1], in assay [2], in assay [3], in assay [4], in assay [5] and in assay [6] was > 30 µM (inactive) each time. The Kd in assay [7] was > 30 µM (inactive).
Regarding `COC(=O)N[C@@H](C)CNc1nccc(-c2cn(C(C)C)nc2-c2cc(Cl)cc(NS(C)(=O)=O)c2F)n1` [ENCORAFENIB], the Kd in assay [1], in assay [2], in assay [3], in assay [4], in assay [5] and in assay [6] was > 30 µM (inactive) throughout. For the same compound, the Kd in assay [7] was > 30 µM (inactive).
In the case of `O=c1sn(-c2cccc3ccccc23)c(=O)n1Cc1ccccc1` [TIDEGLUSIB], the Kd in assay [1], in assay [2], in assay [3], in assay [4], in assay [5] and in assay [6] was > 30 µM (inactive) in each case. Moreover, the Kd in assay [7] is > 30 µM (inactive).
Consider `O=C(c1ccc(F)c(F)c1Nc1ccc(I)cc1F)N1CC(O)([C@@H]2CCCCN2)C1` [COBIMETINIB], for which the Kd in assay [1], in assay [2], in assay [3], in assay [4], in assay [5] and in assay [6] was > 30 µM (inactive) throughout. In addition, in assay [7], the Kd was > 30 µM (inactive).
For `C1=C/COCc2cc(ccc2OCCN2CCCC2)Nc2nccc(n2)-c2cccc(c2)COC/1` [PACRITINIB], the Kd in assay [1], in assay [2], in assay [3], in assay [4], in assay [5] and in assay [6] was > 30 µM (inactive) each time. Also, the Kd in assay [7] is > 30 µM (inactive).
On to `Cc1ccc(S(=O)(=O)Nc2nc3ccccc3nc2Nc2ccc3nsnc3c2)cc1`, for which the Kd in assay [1], in assay [2], in assay [3], in assay [4], in assay [5] and in assay [6] was > 30 µM (inactive) in each case. Besides, the Kd in assay [7] was > 30 µM (inactive).
For the compound `Cn1cc(-c2ccc(F)c(C(F)(F)F)c2)nc1C1CCN(c2ncnc3[nH]ncc23)CC1` [LY-2584702], the Kd in assay [1], in assay [2], in assay [3], in assay [4], in assay [5] and in assay [6] was > 30 µM (inactive) each time. For the same compound, the Kd in assay [7] is > 30 µM (inactive).
Regarding `CN(C)C(=O)c1cc2cnc(Nc3ccc(N4CCNCC4)cn3)nc2n1C1CCCC1` [RIBOCICLIB], the Kd in assay [1], in assay [2], in assay [3], in assay [4], in assay [5] and in assay [6] was > 30 µM (inactive) in each case. Moreover, the Kd in assay [7] was > 30 µM (inactive).
As to `O=C(Nc1ccc(-c2ccnc(Nc3ccc(N4CCOCC4)cc3)n2)cc1)C1CCCN1` (configuration not stated) [XL-019], the Kd in assay [1], in assay [2], in assay [3], in assay [4], in assay [5] and in assay [6] was > 30 µM (inactive) each time. Moreover, the Kd in assay [7] is > 30 µM (inactive).
For the compound `CNC(=O)CN1CCC(Oc2cc3c(Nc4cccc(Cl)c4F)ncnc3cc2OC)CC1` [SAPITINIB], the Kd in assay [1], in assay [2], in assay [3], in assay [4], in assay [5] and in assay [6] was > 30 µM (inactive) in each case. Moreover, in assay [7], the Kd was > 30 µM (inactive).

As a reminder, the Kd is the constant that tells how readily two partners part at equilibrium.
